# Measured values reported in patent publication US5672715A, “Herbicidal substituted 3-aryl-pyrazoles” (Monsanto Company, priority 1995, dated 1997).
# What was measured:
# Format in all cases: in vivo
# Soybean [1] = assay: pre-emergence herbicide test; conditions: Glycine max, pre-emergence, 0.25 lb/A; read-out: % plant inhibition
# Summary of the method: (§1)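 Steps: compact topsoil in pan; place seeds; level-fill with cover soil; add a known amount of compound before or after covering; keep pans in greenhouse, bottom-watering as needed; rate % inhibition at about 14 days.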
# Barnyardgrass [2] = assay: pre-emergence herbicide test; conditions: Echinochloa crus-galli, pre-emergence, 0.25 lb/A; read-out: % plant inhibition
# Summary of the method: as §1
# Blackgrass [3] = assay: pre-emergence herbicide test; conditions: Alopecurus myosuroides, pre-emergence, 0.25 lb/A; read-out: % plant inhibition
# Summary of the method: as §1
# Morning Glory [4] = assay: pre-emergence herbicide test; conditions: Ipomoea, pre-emergence, 0.25 lb/A; read-out: % plant inhibition
# Summary of the method: as §1
# Bedstraw Catchweed [5] = assay: pre-emergence herbicide test; conditions: Galium aparine, pre-emergence, 0.25 lb/A; read-out: % plant inhibition
# Summary of the method: as §1
# Seedling Johnsongrass [6] = assay: pre-emergence herbicide test; conditions: Sorghum halepense, pre-emergence, 0.25 lb/A; read-out: % plant inhibition
# Summary of the method: as §1
# Rape [7] = assay: pre-emergence herbicide test; conditions: pre-emergence, 0.25 lb/A; read-out: % plant inhibition
# Summary of the method: as §1
# Birdseye Speedwell [8] = assay: pre-emergence herbicide test; conditions: pre-emergence, 0.25 lb/A; read-out: % plant inhibition
# Summary of the method: as §1
# Giant Foxtail [9] = assay: pre-emergence herbicide test; conditions: Setaria faberi, pre-emergence, 0.25 lb/A; read-out: % plant inhibition
# Summary of the method: as §1
# Velvetleaf [10] = assay: pre-emergence herbicide test; conditions: Abutilon theophrasti, pre-emergence, 0.25 lb/A; read-out: % plant inhibition
# Summary of the method: as §1
# Common Chickweed [11] = assay: pre-emergence herbicide test; conditions: pre-emergence, 0.25 lb/A; read-out: % plant inhibition
# Summary of the method: as §1
# Green Foxtail [12] = assay: pre-emergence herbicide test; conditions: Setaria viridis, pre-emergence; 0.25 lb/A; read-out: % plant inhibition
# Summary of the method: as §1
# Cocklebur [13] = assay: pre-emergence herbicide test; conditions: Xanthium strumarium, pre-emergence, 0.25 lb/A; read-out: % plant inhibition
# Summary of the method: as §1
# Corn [14] = assay: pre-emergence herbicide test; conditions: Zea mays, pre-emergence, 0.25 lb/A; read-out: % plant inhibition
# Summary of the method: as §1
# Wild Oats [15] = assay: pre-emergence herbicide test; conditions: Avena fatua, pre-emergence, 0.25 lb/A; read-out: % plant inhibition
# Summary of the method: as §1
# Wheat [16] = assay: pre-emergence herbicide test; conditions: Triticum aestivum, pre-emergence, 0.25 lb/A; read-out: % plant inhibition
# Summary of the method: as §1
# Downy Brome [17] = assay: pre-emergence herbicide test; conditions: Bromus tectorum, pre-emergence, 0.25 lb/A; read-out: % plant inhibition
# Summary of the method: as §1
# Soybean [18] = assay: post-emergence herbicide test; conditions: Glycine max, post-emergence, 0.25 lb/A; read-out: % plant inhibition
# Summary of the method: (§2)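 Greenhouse plants grown from seeds in topsoil were treated two to three weeks after sowing with a spray solution or suspension of test chemical with about 0.4% by volume emulsifier, applied at 1870 L/Ha and 170.3 kPa. Percent inhibition per species was the endpoint.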
# Barnyardgrass [19] = assay: post-emergence herbicide test; conditions: Echinochloa crus-galli, post-emergence, 0.25 lb/A; read-out: % plant inhibition
# Summary of the method: as §2
# Blackgrass [20] = assay: post-emergence herbicide test; conditions: Alopecurus myosuroides, post-emergence, 0.25 lb/A; read-out: % plant inhibition
# Summary of the method: as §2
# Morning Glory [21] = assay: post-emergence herbicide test; conditions: Ipomoea, post-emergence, 0.25 lb/A; read-out: % plant inhibition
# Summary of the method: as §2
# Bedstraw Catchweed [22] = assay: post-emergence herbicide test; conditions: Galium aparine, post-emergence, 0.25 lb/A; read-out: % plant inhibition
# Summary of the method: as §2
# Seedling Johnsongrass [23] = assay: post-emergence herbicide test; conditions: Sorghum halepense, post-emergence, 0.25 lb/A; read-out: % plant inhibition
# Summary of the method: as §2
# Rape [24] = assay: post-emergence herbicide test; conditions: post-emergence, 0.25 lb/A; read-out: % plant inhibition
# Summary of the method: as §2
# Birdseye Speedwell [25] = assay: post-emergence herbicide test; conditions: post-emergence, 0.25 lb/A; read-out: % plant inhibition
# Summary of the method: as §2
# Giant Foxtail [26] = assay: post-emergence herbicide test; conditions: Setaria faberi, post-emergence, 0.25 lb/A; read-out: % plant inhibition
# Summary of the method: as §2
# Velvetleaf [27] = assay: post-emergence herbicide test; conditions: Abutilon theophrasti, post-emergence, 0.25 lb/A; read-out: % plant inhibition
# Summary of the method: as §2
# Common Chickweed [28] = assay: post-emergence herbicide test; conditions: post-emergence, 0.25 lb/A; read-out: % plant inhibition
# Summary of the method: as §2
# Green Foxtail [29] = assay: post-emergence herbicide test; conditions: Setaria viridis, post-emergence, 0.25 lb/A; read-out: % plant inhibition
# Summary of the method: as §2
# Cocklebur [30] = assay: post-emergence herbicide test; conditions: Xanthium strumarium, post-emergence, 0.25 lb/A; read-out: % plant inhibition
# Summary of the method: as §2
# Corn [31] = assay: post-emergence herbicide test; conditions: Zea mays, post-emergence, 0.25 lb/A; read-out: % plant inhibition
# Summary of the method: as §2
# Wild Oats [32] = assay: post-emergence herbicide test; conditions: Avena fatua, post-emergence, 0.25 lb/A; read-out: % plant inhibition
# Summary of the method: as §2
# Wheat [33] = assay: post-emergence herbicide test; conditions: Triticum aestivum, post-emergence, 0.25 lb/A; read-out: % plant inhibition
# Summary of the method: as §2
# Downy Brome [34] = assay: post-emergence herbicide test; conditions: Bromus tectorum, post-emergence, 0.25 lb/A; read-out: % plant inhibition
# Summary of the method: as §2
SMILES,inhibition at 280.212 g/ha (Soybean [1]) [%],inhibition at 280.212 g/ha (Barnyardgrass [2]) [%],inhibition at 280.212 g/ha (Blackgrass [3]) [%],inhibition at 280.212 g/ha (Morning Glory [4]) [%],inhibition at 280.212 g/ha (Bedstraw Catchweed [5]) [%],inhibition at 280.212 g/ha (Seedling Johnsongrass [6]) [%],inhibition at 280.212 g/ha (Rape [7]) [%],inhibition at 280.212 g/ha (Birdseye Speedwell [8]) [%],inhibition at 280.212 g/ha (Giant Foxtail [9]) [%],inhibition at 280.212 g/ha (Velvetleaf [10]) [%],inhibition at 280.212 g/ha (Common Chickweed [11]) [%],inhibition at 280.212 g/ha (Green Foxtail [12]) [%],inhibition at 280.212 g/ha (Cocklebur [13]) [%],inhibition at 280.212 g/ha (Corn [14]) [%],inhibition at 280.212 g/ha (Wild Oats [15]) [%],inhibition at 280.212 g/ha (Wheat [16]) [%],inhibition at 280.212 g/ha (Downy Brome [17]) [%],inhibition at 280.212 g/ha (Soybean [18]) [%],inhibition at 280.212 g/ha (Barnyardgrass [19]) [%],inhibition at 280.212 g/ha (Blackgrass [20]) [%],also measured
Cc1c(-c2cc(CS(C)(=O)=O)c(Cl)cc2F)nn(C)c1C(F)(F)F [Compound 28],0,15,30,0,40,50,5,70,30,45,25,90,10,3,0,0,0,20,10,10,inhibition at 280.212 g/ha (Morning Glory [21]): 65%; inhibition at 280.212 g/ha (Bedstraw Catchweed [22]): 60%; inhibition at 280.212 g/ha (Seedling Johnsongrass [23]): 20%; inhibition at 280.212 g/ha (Rape [24]): 20%; inhibition at 280.212 g/ha (Birdseye Speedwell [25]): 85%; inhibition at 280.212 g/ha (Giant Foxtail [26]): 25%; inhibition at 280.212 g/ha (Velvetleaf [27]): 60%; inhibition at 280.212 g/ha (Common Chickweed [28]): 25%; inhibition at 280.212 g/ha (Green Foxtail [29]): 50%; inhibition at 280.212 g/ha (Cocklebur [30]): 40%; inhibition at 280.212 g/ha (Corn [31]): 40%; inhibition at 280.212 g/ha (Wild Oats [32]): 15%; inhibition at 280.212 g/ha (Wheat [33]): 8%; inhibition at 280.212 g/ha (Downy Brome [34]): 20%
COCCOC(=O)c1cc(-c2nn(C)c(C(F)(F)F)c2C)c(F)cc1Cl [Compound 56],0,100,75,80,90,50,5,100,90,100,95,100,20,0,55,5,100,90,50,60,inhibition at 280.212 g/ha (Morning Glory [21]): 80%; inhibition at 280.212 g/ha (Bedstraw Catchweed [22]): 98%; inhibition at 280.212 g/ha (Seedling Johnsongrass [23]): 95%; inhibition at 280.212 g/ha (Rape [24]): 98%; inhibition at 280.212 g/ha (Birdseye Speedwell [25]): 100%; inhibition at 280.212 g/ha (Giant Foxtail [26]): 100%; inhibition at 280.212 g/ha (Velvetleaf [27]): 100%; inhibition at 280.212 g/ha (Common Chickweed [28]): 90%; inhibition at 280.212 g/ha (Green Foxtail [29]): 98%; inhibition at 280.212 g/ha (Cocklebur [30]): 99%; inhibition at 280.212 g/ha (Corn [31]): 35%; inhibition at 280.212 g/ha (Wild Oats [32]): 80%; inhibition at 280.212 g/ha (Wheat [33]): 16%; inhibition at 280.212 g/ha (Downy Brome [34]): 85%
Cc1c(-c2cc(C(N)=O)c(Cl)cc2F)nn(C)c1C(F)(F)F [Compound 21],15,90,95,20,90,85,90,100,45,25,98,100,20,16,60,5,35,35,25,10,inhibition at 280.212 g/ha (Morning Glory [21]): 90%; inhibition at 280.212 g/ha (Bedstraw Catchweed [22]): 65%; inhibition at 280.212 g/ha (Seedling Johnsongrass [23]): 35%; inhibition at 280.212 g/ha (Rape [24]): 20%; inhibition at 280.212 g/ha (Birdseye Speedwell [25]): 50%; inhibition at 280.212 g/ha (Giant Foxtail [26]): 35%; inhibition at 280.212 g/ha (Velvetleaf [27]): 90%; inhibition at 280.212 g/ha (Common Chickweed [28]): 30%; inhibition at 280.212 g/ha (Green Foxtail [29]): 25%; inhibition at 280.212 g/ha (Cocklebur [30]): 65%; inhibition at 280.212 g/ha (Corn [31]): 10%; inhibition at 280.212 g/ha (Wild Oats [32]): 20%; inhibition at 280.212 g/ha (Wheat [33]): 5%; inhibition at 280.212 g/ha (Downy Brome [34]): 25%
"Cc1c(-c2ccc(Cl)cc2)nn(C)c1C(F)(F)F [Compound 7, 3-(4-chlorophenyl)-1,4-dimethyl-5-(trifluoromethyl)pyrazole]",0,0,0,0,5,25,0,0,15,0,0,0,0,0,0,0,0,5,0,5,inhibition at 280.212 g/ha (Morning Glory [21]): 0%; inhibition at 280.212 g/ha (Bedstraw Catchweed [22]): 35%; inhibition at 280.212 g/ha (Seedling Johnsongrass [23]): 0%; inhibition at 280.212 g/ha (Rape [24]): 0%; inhibition at 280.212 g/ha (Birdseye Speedwell [25]): 65%; inhibition at 280.212 g/ha (Giant Foxtail [26]): 0%; inhibition at 280.212 g/ha (Velvetleaf [27]): 5%; inhibition at 280.212 g/ha (Common Chickweed [28]): 0%; inhibition at 280.212 g/ha (Green Foxtail [29]): 20%; inhibition at 280.212 g/ha (Cocklebur [30]): 0%; inhibition at 280.212 g/ha (Corn [31]): 0%; inhibition at 280.212 g/ha (Wild Oats [32]): 5%; inhibition at 280.212 g/ha (Wheat [33]): 5%; inhibition at 280.212 g/ha (Downy Brome [34]): 5%
COCC(C)OC(=O)c1cc(-c2nn(C)c(C(F)(F)F)c2C)c(F)cc1Cl (centres unmarked) [Compound 52],5,100,100,70,90,100,60,95,100,100,95,100,65,75,85,0,100,95,99,95,inhibition at 280.212 g/ha (Morning Glory [21]): 99%; inhibition at 280.212 g/ha (Bedstraw Catchweed [22]): 100%; inhibition at 280.212 g/ha (Seedling Johnsongrass [23]): 99%; inhibition at 280.212 g/ha (Rape [24]): 100%; inhibition at 280.212 g/ha (Birdseye Speedwell [25]): 100%; inhibition at 280.212 g/ha (Giant Foxtail [26]): 100%; inhibition at 280.212 g/ha (Velvetleaf [27]): 100%; inhibition at 280.212 g/ha (Common Chickweed [28]): 100%; inhibition at 280.212 g/ha (Green Foxtail [29]): 98%; inhibition at 280.212 g/ha (Cocklebur [30]): 100%; inhibition at 280.212 g/ha (Corn [31]): 15%; inhibition at 280.212 g/ha (Wild Oats [32]): 95%; inhibition at 280.212 g/ha (Wheat [33]): 25%; inhibition at 280.212 g/ha (Downy Brome [34]): 100%
